Literature values as cited in patent publication US20130204238A1, “COMBINATION THERAPY” (FOLLICA, INC, priority 2010, published 2013).

Target: GSK3β (Homo sapiens, UniProt P49841)
Conditions: compared with other indirubin derivatives

GSK3β, sequence (P49841 whole entry, species assumed): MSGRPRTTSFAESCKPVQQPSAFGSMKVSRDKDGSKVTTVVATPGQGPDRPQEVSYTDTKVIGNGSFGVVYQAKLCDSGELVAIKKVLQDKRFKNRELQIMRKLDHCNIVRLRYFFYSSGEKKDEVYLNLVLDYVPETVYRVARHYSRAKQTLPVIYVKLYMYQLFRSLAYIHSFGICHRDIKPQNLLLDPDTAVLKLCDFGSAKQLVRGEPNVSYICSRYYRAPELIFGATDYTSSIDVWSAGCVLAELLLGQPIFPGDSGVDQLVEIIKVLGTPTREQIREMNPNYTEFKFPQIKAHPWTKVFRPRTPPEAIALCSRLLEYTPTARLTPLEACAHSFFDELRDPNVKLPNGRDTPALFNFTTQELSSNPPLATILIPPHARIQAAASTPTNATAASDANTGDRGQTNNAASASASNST

Row | Compound | pharmacological properties | toxicity
1 | indirubin 3′-monoxime | better pharmacological properties | 
2 | O=C1Nc2ccc(Cl)cc2/C1=C1/Nc2ccccc2C1=O [5-chloroindirubin] | better pharmacological properties | reduced toxicity
